Experiment [1] has as its target T1, α5ß2 γ2 GABAA Receptor (Homo sapiens, UniProt P18507+P31644).
T1 sequence (P31644 32-462): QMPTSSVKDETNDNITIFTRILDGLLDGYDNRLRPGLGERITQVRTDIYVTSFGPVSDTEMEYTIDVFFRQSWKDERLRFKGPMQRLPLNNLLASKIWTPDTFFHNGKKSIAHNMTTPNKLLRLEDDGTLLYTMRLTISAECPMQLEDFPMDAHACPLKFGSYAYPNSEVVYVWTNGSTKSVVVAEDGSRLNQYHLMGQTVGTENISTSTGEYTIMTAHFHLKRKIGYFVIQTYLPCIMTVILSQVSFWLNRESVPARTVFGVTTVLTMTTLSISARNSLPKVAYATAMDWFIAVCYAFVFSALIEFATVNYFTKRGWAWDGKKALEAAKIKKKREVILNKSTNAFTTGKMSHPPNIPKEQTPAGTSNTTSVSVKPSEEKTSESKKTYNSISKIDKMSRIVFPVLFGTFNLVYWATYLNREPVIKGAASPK
T1 sequence (P18507 40-376 limits assumed): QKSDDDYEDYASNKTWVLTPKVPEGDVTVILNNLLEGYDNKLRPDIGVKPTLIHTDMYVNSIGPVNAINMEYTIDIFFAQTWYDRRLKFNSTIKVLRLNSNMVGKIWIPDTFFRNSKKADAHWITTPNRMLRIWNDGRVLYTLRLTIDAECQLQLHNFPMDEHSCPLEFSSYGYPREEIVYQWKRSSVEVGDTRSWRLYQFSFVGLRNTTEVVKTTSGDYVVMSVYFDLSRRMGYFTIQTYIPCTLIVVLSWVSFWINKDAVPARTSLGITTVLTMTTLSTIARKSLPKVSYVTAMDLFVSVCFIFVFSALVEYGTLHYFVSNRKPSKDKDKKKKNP
Put plainly: Assay B: in vitro evaluation of modulation of α5ß2γ2 GABAA receptor, two-electrode voltage clamp in oocytes. The class given is cell-based. The settings on record: for pEC50: co-application with 0.5 μM GABA, oocytes, read-out: Assay B: GABAA α 5 β 3 γ 2 EC50. The procedure:
Assay B: In Vitro Evaluation of Modulation of α5ß2 γ2 GABAA Receptor.
Modulatory efficacy of compounds of formular (I) is determined electrophysiological recordings in oocytes using the two-electrode voltage clamp (TEVC) technique. Oocytes are injected with cRNA for human GABAA receptor subunits α5, ß2 and γ2 in a 3:1:3 ratio and modulatory efficacy is evaluated by co-applications with a submaximal EC5-20 GABA concentration (0.5 μM) termed GABA control. As a standard, the compounds are tested in five concentrations (3.16, 0.316, 0.0316, 0.00316 and 0.000316 μM) on each oocyte starting with the lowest concentration. Background subtracted peak current amplitudes are normalized to the respective GABAcontrol current, converted to % change and depicted +/−S.E.M. as a function of increasing compound concentrations. Plotted datapoints are fitted to the empirical Hill equation using non-linear regression. 95% confidence intervals for maximal efficacy (Bottom) and potency (Log EC50) are derived from this fitting routine.

Experiment [2] has as its target T2, human GABAA α5β3γ2s receptor (Homo sapiens, UniProt P18507+P31644).
T2 sequence (P18507 1-475): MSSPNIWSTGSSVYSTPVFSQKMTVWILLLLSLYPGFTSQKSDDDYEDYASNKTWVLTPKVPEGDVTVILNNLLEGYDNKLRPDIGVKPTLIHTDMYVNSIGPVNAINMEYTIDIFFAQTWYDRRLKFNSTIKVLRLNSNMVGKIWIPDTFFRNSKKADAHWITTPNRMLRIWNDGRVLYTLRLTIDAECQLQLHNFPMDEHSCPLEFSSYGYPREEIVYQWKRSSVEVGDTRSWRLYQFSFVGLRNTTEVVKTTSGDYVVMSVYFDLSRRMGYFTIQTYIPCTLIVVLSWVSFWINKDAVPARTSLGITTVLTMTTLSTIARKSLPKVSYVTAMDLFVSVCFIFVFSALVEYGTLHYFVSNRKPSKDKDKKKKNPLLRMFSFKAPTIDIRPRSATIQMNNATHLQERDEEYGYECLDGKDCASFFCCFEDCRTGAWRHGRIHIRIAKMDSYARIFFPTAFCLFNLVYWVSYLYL
T2 sequence (P31644 1-462): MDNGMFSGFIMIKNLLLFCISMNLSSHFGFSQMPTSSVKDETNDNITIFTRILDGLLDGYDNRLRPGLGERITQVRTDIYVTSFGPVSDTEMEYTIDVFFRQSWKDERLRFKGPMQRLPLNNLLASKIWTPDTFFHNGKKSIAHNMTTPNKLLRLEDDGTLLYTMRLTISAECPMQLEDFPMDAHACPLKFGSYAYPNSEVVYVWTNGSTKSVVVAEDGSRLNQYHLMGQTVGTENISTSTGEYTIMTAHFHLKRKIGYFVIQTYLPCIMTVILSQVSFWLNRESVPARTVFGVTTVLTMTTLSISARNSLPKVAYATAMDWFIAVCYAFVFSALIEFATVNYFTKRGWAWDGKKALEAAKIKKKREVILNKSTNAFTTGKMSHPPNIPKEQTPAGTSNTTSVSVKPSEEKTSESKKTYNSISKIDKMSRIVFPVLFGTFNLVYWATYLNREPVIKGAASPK
Put plainly: Assay A: in vitro inhibition of 3H-flumazenil binding, HEK cells expressing the human GABAA α5β3γ2s receptor. Here is the method: Cell Cultures and Membrane Preparation
HEK-293 cell lines with stable expression of recombinant human GABAA α5ß3 γ2s receptors (plasmid H46/E9/B10) are seeded in T175 polystyrene flasks or roller bottles (1700 cm^2, Fisher Scientific CCI-431191), and cultured (37° C., 5% CO2) in Dulbecco's Modified Eagle Medium (DMEM) with GlutaMAX™ supplemented with 10% fetal bovine serum and one or both of the following antibiotics: hygromycin B ([…]; γ2 subunit) or G418 (0.5 mg/ml; […]).
When the cultures reach confluency, the DMEM is removed and the cells are washed (10 ml for T175 flasks; 50 ml for roller bottles) once in Dulbecco's Phosphate Buffered Saline (DPBS). Following addition of DPBS to the cultures (10 ml for T175 flasks; 100 ml for roller bottles) for approximately 5 min cells are easily detached from the surface by shaking or tapping the flask gently. The cell suspension is transferred to Falcon tubes and centrifuged at 23,500×g for 10 min at 2° C. The pellet is washed once in 15 ml Tris-citrate buffer (50 mM, pH 7.1) using an Ultra-Turrax homogenizer and centrifuged at 2° C. for 10 min at 27,000×g. The washed pellet is re-suspended in 15 ml Tris-citrate buffer and frozen at −80° C. until the day of the binding experiment.
On the day of the experiment the cell membrane preparation is thawed and centrifuged at 2° C. for 10 min at 27,000×g. The pellet is re-suspended, using an Ultra-Turrax homogenizer in Tris-citrate buffer, to 15-50 µg protein per assay and then used for binding assays.
Non-specific binding is determined using clonazepam ([…]).
All dilutions of test compounds and incubation of assay are performed in glass vials/96-vial plates. […] Compounds are dissolved in 100% DMSO (10 mM stock), diluted in 48% ethanol-water, and tested in triplicate in serial 1:3 or 1:10 dilutions. When screening large numbers of compounds only one concentration of each compound is tested in single wells. Reference compounds are not included routinely, but for each experiment performed total and nonspecific binding is compared to data obtained during validation of the assay.
Binding is either terminated by rapid filtration onto
1) Whatman GF/C glass fibre filters using a Brandel Cell harvester, followed by 5 washes with 1 ml ice-cold buffer or onto 2) UniFilter GF/C glass fibre filter plates using a Tomtec cell harvester, followed by washing with approximately 5 ml ice-cold buffer.
The amount of radioactivity on the filters is determined by conventional liquid scintillation counting using a
1) Tri-Garb™ counter (PerkinElmer Life and Analytical Sciences) for separate large filters or
2) Topcount™ counter (PerkinElmer Life and Analytical Sciences) for 96-well filter plates.
Specific binding is total binding minus non-specific binding.
The IC50 value for a test compound is determined based on the equation: […]
where B is the binding in percentage of total specific binding; C is the concentration of test compound; and n is the Hill coefficient. For screening purposes n is set to 1. The IC50 value is calculated from the concentration response curves by the non-linear regression method using the curve-fitting program GraphPad Prism.
The Ki value for a test compound can be calculated from the IC50 value using the equation by Cheng and Prusoff: […]

[3] abbreviates: read-out: Assay A: GABAA α 5 β 3 γ 2s Ki.
Where [4] appears, read: comparison compounds of WO 2020/016433, read-out: Assay A: GABAA α5 β3 γ2S Ki.

pEC50, pKi: −log10 of the molar value. Like-named read-outs stand apart in the source and are kept apart here. A value given as a limit tells only on which side of the number the result lay.

The term pEC50 denotes the negative decadic logarithm of the EC50, by convention in mol/L. For orientation: pKi means −log10 of the Ki, conventionally taken in molar units. Regarding `CSc1ccc(-c2ccc(OCc3c(C)nnn3-c3ccc(C(F)F)cn3)nn2)cn1` [Example 10], in experiment [1], the Assay B: GABAA α 5 β 3 γ 2 Emax vs GABA was -8% and the pEC50 was 7.12. Further, the pKi in experiment [2] (setting [3]) is 8.05.
Take `Cc1nnn(-c2ccc(C(F)F)cn2)c1COc1ccc(-c2cccc(C#N)n2)nn1` [Example 11]: in experiment [1], the Assay B: GABAA α 5 β 3 γ 2 Emax vs GABA is -13.5% and the pEC50 was 7.43. Further, the pKi in experiment [2] (setting [3]) is 8.05.
For `Cc1nnn(-c2ccc(C(F)F)cn2)c1COc1ccc(-c2cncc(C#N)c2)nn1` [Example 13], in experiment [1], the Assay B: GABAA α 5 β 3 γ 2 Emax vs GABA is -9% and the pEC50 is 7.35. Also, in experiment [2] (setting [3]), the pKi was 8.22.
Consider `CCn1cc(-c2ccc(OCc3c(C)nnn3-c3ccc(C(F)F)cn3)nn2)ccc1=O` [Example 21], for which the Assay B: GABAA α 5 β 3 γ 2 Emax vs GABA in experiment [1] was -4%. The pKi in experiment [2] (setting [3]) is 8.00.
As for `CNc1cc(-c2ccc(OCc3c(-c4ccc(C(F)F)cn4)nnn3C)nn2)ccn1` [Example 26], the Assay B: GABAA α 5 β 3 γ 2 Emax vs GABA in experiment [1] was -5.3%. For the same molecule, the pKi in experiment [2] (setting [3]) was 7.85.
Consider `Cn1nnc(-c2ccc(C(F)F)cn2)c1COc1ccc(-c2cncc(C#N)c2)nn1` [Example 27], for which the Assay B: GABAA α 5 β 3 γ 2 Emax vs GABA in experiment [1] was -6.7%. In experiment [2] (setting [3]), the pKi was 7.92.
Regarding `Cn1ccc(-c2ccc(OCc3c(-c4ccc(C(F)F)cn4)nnn3C)nn2)n1` [Example 34], in experiment [1], the Assay B: GABAA α 5 β 3 γ 2 Emax vs GABA is -17% and the pEC50 is 8.38. Besides, the pKi in experiment [2] (setting [3]) was 7.60.
Consider `Cc1nnn(-c2ccc(C(F)F)cn2)c1COc1ccc(-n2cnc(C(N)=O)c2)nn1` [Example 36], for which the pKi in experiment [2] (setting [3]) was below 5.05.
As to `CCc1cn(-c2ccc(OCc3c(-c4ccc(C(F)F)cn4)nnn3C)nn2)nc1N` [Example 40], in experiment [1], the Assay B: GABAA α 5 β 3 γ 2 Emax vs GABA was -10.3% and the pEC50 was 7.49. For the same molecule, the pKi in experiment [2] (setting [3]) was 8.10.
`CNc1cc(C)nn1-c1ccc(OCc2c(-c3ccc(C(F)F)cn3)nnn2C)nn1` [Example 41]: in experiment [1], the Assay B: GABAA α 5 β 3 γ 2 Emax vs GABA was -21.3% and the pEC50 was 7.36. For the same molecule, the pKi in experiment [2] (setting [3]) was 8.70.
Take `Cc1nnn(-c2ccc(C(F)F)cn2)c1COc1ccc(-n2ccnn2)nn1` [Example 44]: in experiment [1], the Assay B: GABAA α 5 β 3 γ 2 Emax vs GABA is -17.7% and the pEC50 was 7.85. In addition, the pKi in experiment [2] (setting [3]) is 7.85.
On to `CCc1nccn1-c1ccc(OCc2c(-c3ccc(C(F)F)cn3)nnn2C)nn1` [Example 45], for which, in experiment [1], the Assay B: GABAA α 5 β 3 γ 2 Emax vs GABA is -17.3% and the pEC50 was 7.64. The pKi in experiment [2] (setting [3]) is 6.82.
The corresponding values for `Cn1nnc(-c2ccc(C(F)F)cn2)c1COc1ccc(-n2ccnc2C#N)nn1` [Example 46] are -26.3%, 7.98 and 6.66.
For `Cc1nccn1-c1ccc(OCc2c(-c3ccc(C(F)F)cn3)nnn2C)nn1` [Example 47], in experiment [1], the Assay B: GABAA α 5 β 3 γ 2 Emax vs GABA is -7% and the negative logarithm of the EC50 (pEC50) was 7.81. Besides, the pKi in experiment [2] (setting [3]) was 6.92.
The corresponding values for `Cn1nnc(-c2ccc(C(F)F)cn2)c1COc1ccc(-n2cc(Cl)cn2)nn1` [Example 51, 3-(4-chloro-1H-pyrazol-1-yl)-6-({4-[5-(difluoromethyl)pyridin-2-yl]-1-methyl-1H-1,2,3-triazol-5-yl}methoxy)pyridazine] are -27.3%, 7.54 and 7.82.
As to `Cc1nnn(-c2ccc(C(F)F)cn2)c1COc1ccc(-n2cc(F)cn2)nn1` [Example 54, 3-({1-[5-(difluoromethyl)pyridin-2-yl]-4-methyl-1H-1,2,3-triazol-5-yl}methoxy)-6-(4-fluoro-1H-pyrazol-1-yl)pyridazine], in experiment [1], the Assay B: GABAA α 5 β 3 γ 2 Emax vs GABA was -34.7% and the pEC50 was 7.82. Moreover, the pKi in experiment [2] (setting [3]) is 7.85.
`Cc1nnn(-c2ccc(C(F)F)cn2)c1COc1ccc(-n2cncn2)nn1` [Example 55]: in experiment [1], the Assay B: GABAA α 5 β 3 γ 2 Emax vs GABA was -20.3% and the pEC50 was 7.61. Also, the pKi in experiment [2] (compounds of the present invention, read-out: Assay A: GABAA α5 β3 γ2S Ki) is 10.49. For the same molecule, the pKi in experiment [2] (setting [3]) was 7.49.
Regarding `Cc1nnn(-c2ccc(C(F)F)cc2)c1COc1ccc(-n2cnc(C#N)c2)nn1` [reference compound], the pKi in experiment [2] (setting [4]) was 9.90.
Same read-out and setting: the value for `Cc1nnn(-c2ccc(C(F)F)cc2)c1COc1ccc(-c2cnccn2)nn1` [reference compound] was 9.60; that for `Cc1nnn(-c2ccc(C(F)F)cc2)c1COc1ccc(-c2ccn[nH]2)nn1` [reference compound] was 9.92.
Still for that read-out and setting: the figure for `Cc1nnn(-c2ccc(C(F)F)cc2)c1COc1ccc(-n2cncn2)nn1` [reference compound] is 9.26.

The values are drawn from patent US20230286946A1, “DIFLUOROMETHYL-PYRIDIN-2-YL TRIAZOLES” (Boehringer Ingelheim International GmbH, priority 2020, published 2023).
